Data as given in US12685756B2, “Methods of treating disease with Terlipressin” (BIOVIE INC., priority 2022, dated 2026).
Positions of bridges follow the written chain, without caps; N, C: chain ends. Residues, ends and D or L forms follow the SMILES beside them.

Legend:
[1] = in vivo; cited from earlier work
[2] = design: species or system human; details: in vivo
Experimental: Patient #4, who was one of 6 patients treated with terlipressin administered as a continuous infusion in our previous Phase 2a trial, was a person with recurrent ascites due to cirrhosis despite taking the […] spironolactone and furosemide. Terlipressin, furosemide, and serum sodium levels of […] are recorded in FIG. 4. According to protocol this patient began treatment with terlipressin at an initial dose of 2 mg/day who was escalated to a dose of 3 mg/day on Day 5. Serum sodium gradually declined over time reaching a reduction of 10 mmol/L on Day 5 at which point the patient stopped taking furosemide. Serum sodium continued to decline and spironolactone was stopped for two days which had no impact on declining serum sodium. Terlipressin infusion was stopped after 9 days of treatment and serum sodium rebounded after 2 days of drug cessation.
Additionally, one patient in our previously conducted Phase 2a trial (n=6) similarly developed asymptomatic hyponatremia in response to terlipressin administration.
In searching for a commonality between the three patients that experienced hyponatremia in response to terlipressin treatment in the current trial it was noted that the three patients were taking daily gabapentin (Patient #1 and 2) or pregabalin (Patient #3) though none of the other 7 patients randomized to treatment with terlipressin were taking either of these medications. Moreover, the one patient out of six who developed hyponatremia in response to terlipressin in the previous Phase 2a trial was also taking gabapentin.

[3] = human, in vivo; cited from earlier work
[4] = bolus IV administration, cited from earlier work
[5] = human, in vivo; cited from earlier work; remark: listed apart in the source
[6] = administered over 14 days with daily albumin to HRS patients; cited from earlier work
[7] = ongoing clinical trial of terlipressin administered as a continuous infusion in patients with cirrhosis and refractory ascites (serum sodium, hyponatremia); details: human, in vivo
Experimental: The following clinical observations were made in an ongoing clinical trial evaluating the safety and efficacy of terlipressin, administered as a continuous infusion, in patients with cirrhosis and refractory ascites. In FIGS. 1-4, “D” stands for “Day” and the notation “Dn” where n is an integer refers to the number of days after the baseline sodium level was measured. The notation “D+N” where N is an integer refers to the number of days after administration of terlipressin was stopped.
Patient #1, a patient with cirrhosis due to NASH and recurrent ascites that was not responding to treatment with the diuretic furosemide initiated infusion with terlipressin (3 mg/day) on Day 1. Terlipressin dose (mg/day), furosemide daily dose, and serum sodium levels of the Patient #1 are recorded in FIG. 1. After 6 days of treatment with terlipressin at a dose of 3 mg/day the dose of terlipressin was escalated to 4 mg/day as per protocol. A modest reduction in serum sodium of 3 mmol/L from baseline was noted before the dose increase. After 7 days of treatment with 4 mg/day serum sodium decreased an additional 8 mmol/L so that there was a total reduction of 11 mmol/L in the 13 days of treatment versus baseline (128 vs 139 mmol/L). […] Terlipressin infusion was discontinued.
Patient #2, a person with alcoholic cirrhosis and recurrent ascites who could not be treated with diuretics began treatment with terlipressin at a dose of 3 mg/day. The daily terlipressin dose and serum sodium levels of the Patient #2 are recorded in FIG. 2.
Patient #3, a person with cirrhosis due to NASH, with uncontrolled ascites despite ongoing treatment with the diuretics furosemide and spironolactone, initiated treatment with terlipressin administered as a continuous intravenous infusion at a dose of 3 mg/day. Terlipressin dose (mg/day), furosemide daily dose, and serum sodium levels of the Patient #3 are recorded in FIG. 3. […] Though the patient was asymptomatic the patient was directed to go to the Emergency room. […]

[8] = administered acutely as a single bolus dose; cited from earlier work
[9] = in vivo; cited from earlier work; remark: listed apart in the source
[10] = continuous infusion, outpatient setting, without daily albumin; cited from earlier work
[11] = in vivo; cited from earlier work; remark: listed apart in the source

For `NCC1(CC(=O)O)CCCCC1` [gabapentin], the “risk of hyponatremia compared with other anti-epilepsy drugs” value [1] is given as “lowest risk of hyponatremia among anti-epilepsy drugs”.

For `NCCCC[C@H](NC(=O)[C@@H]1CCCN1C(=O)[C@@H]1CSSC[C@H](NC(=O)CNC(=O)CNC(=O)CN)C(=O)N[C@@H](Cc2ccc(O)cc2)C(=O)N[C@@H](Cc2ccccc2)C(=O)N[C@@H](CCC(N)=O)C(=O)N[C@@H](CC(N)=O)C(=O)N1)C(=O)NCC(N)=O` [terlipressin] (H-GGGCYFQNCPKG-NH2; disulfide 4-9), the “patients who developed asymptomatic hyponatremia in response to terlipressin” value [2] was “one patient”, the “relatedness of severe hyponatremia to treatment” value [2] was “considered related to terlipressin treatment” and the “serum sodium after drug cessation” value [2] was “rebounded”. For the same compound, the “symptoms of severe hyponatremia” value [2] was “asymptomatic”, the “patients with severe hyponatremia (reduction in serum sodium of >10 mmol/L)” value [3] was “more than 12%” and the “patients with severe hyponatremia who experience neurological manifestations” value [3] was “at least 30%”. For the same compound, the “hours in which V2 mediated antidiuretic effects can predominate” value ([4]; between bolus doses) was 4 to 6 h, the “duration of V1-mediated pharmacodynamic effects” value [4] was 3 to 4 h and the “patients who experienced hyponatremia defined as ≥5 mmol decrease in serum sodium” value [5] was 67%. For the same compound, the “effect on low serum sodium” value [6] was “can even correct low serum sodium”, the “additional decrease in serum sodium” value [7] was 4 mmol/L and the “relatedness of hyponatremia to treatment” value [7] was “considered related to terlipressin”. For the same compound, the “total reduction in serum sodium versus baseline” value [7] was 11 mmol/L, the antidiuretic effect [8] was “mediates antidiuretic effects” and the incidence of hyponatremia [9] was less than 5%. For the same compound, the “effect on renal function and ascites” value [10] was “improve renal function and reduce ascites” and the “effect on serum sodium concentrations” value [10] was “improve serum sodium concentrations”.

In the case of `NC(=O)CC[C@@H]1NC(=O)[C@H](Cc2ccccc2)NC(=O)[C@H](Cc2ccc(O)cc2)NC(=O)CCSSC[C@@H](C(=O)N2CCC[C@H]2C(=O)N[C@H](CCCN=C(N)N)C(=O)NCC(N)=O)NC(=O)[C@H](CC(N)=O)NC1=O` [desmopressin], the “incidence of desmopressin-induced hyponatremia” value [11] is given as 7.6%.
